The nature of the data set: Particle size of the cefuroxime axetil particles (SEM images). The data set is classed as physicochemical. As to conditions: amorphous particles from antisolvent precipitation.
With `CO/N=C(\C(=O)N[C@@H]1C(=O)N2C(C(=O)OC(C)OC(C)=O)=C(COC(N)=O)CS[C@H]12)c1ccco1` (some centres unmarked) [Example 1, cefuroxime axetil], the average particle size entry is on record as “about 500 nm”. Under `CO/N=C(\C(=O)N[C@@H]1C(=O)N2C(C(=O)OC(C)OC(C)=O)=C(COC(N)=O)CS[C@H]12)c1ccco1` (some centres unmarked) [Example 2, cefuroxime axetil] stands “about 600 nm”; under `CO/N=C(\C(=O)N[C@@H]1C(=O)N2C(C(=O)OC(C)OC(C)=O)=C(COC(N)=O)CS[C@H]12)c1ccco1` (some centres unmarked) [Example 3, cefuroxime axetil], “about 1 μm”. Regarding `CO/N=C(\C(=O)N[C@@H]1C(=O)N2C(C(=O)OC(C)OC(C)=O)=C(COC(N)=O)CS[C@H]12)c1ccco1` (some centres unmarked) [Example 4, cefuroxime axetil], the average particle size entry is reported as “about 400 nm”. Under `CO/N=C(\C(=O)N[C@@H]1C(=O)N2C(C(=O)OC(C)OC(C)=O)=C(COC(N)=O)CS[C@H]12)c1ccco1` (some centres unmarked) [Example 5, cefuroxime axetil] stands “about 200 nm”; under `CO/N=C(\C(=O)N[C@@H]1C(=O)N2C(C(=O)OC(C)OC(C)=O)=C(COC(N)=O)CS[C@H]12)c1ccco1` (some centres unmarked) [Example 6, cefuroxime axetil], “about 1 μm”; under `CO/N=C(\C(=O)N[C@@H]1C(=O)N2C(C(=O)OC(C)OC(C)=O)=C(COC(N)=O)CS[C@H]12)c1ccco1` (some centres unmarked) [Example 7, cefuroxime axetil], “about 500 nm”.

As to `CO/N=C(\C(=O)N[C@@H]1C(=O)N2C(C(=O)OC(C)OC(C)=O)=C(COC(N)=O)CS[C@H]12)c1ccco1` (some centres unmarked) [Example 8, cefuroxime axetil], the average particle size result is given as “about 2 μm”.

On to `CO/N=C(\C(=O)N[C@@H]1C(=O)N2C(C(=O)OC(C)OC(C)=O)=C(COC(N)=O)CS[C@H]12)c1ccco1` (some centres unmarked) [Example 9, cefuroxime axetil], for which the average particle size result was “about 500 nm”.

Turning to `CO/N=C(\C(=O)N[C@@H]1C(=O)N2C(C(=O)OC(C)OC(C)=O)=C(COC(N)=O)CS[C@H]12)c1ccco1` (some centres unmarked) [Example 10, cefuroxime axetil], the average particle size entry is on record as “about 600 nm”. Under `CO/N=C(\C(=O)N[C@@H]1C(=O)N2C(C(=O)OC(C)OC(C)=O)=C(COC(N)=O)CS[C@H]12)c1ccco1` (some centres unmarked) [Example 11, cefuroxime axetil] stands “about 1 μm”.

Values taken from patent US7507813B2, “Amorphous cefuroxime axetil and preparation process therefore” (Nanomaterials Technology Pte Ltd., priority 2004, dated 2009).
